The values that follow come from ChEMBL document CHEMBL5154711, “Discovery of Novel Sphingosine-1-Phosphate-1 Receptor Agonists for the Treatment of Multiple Sclerosis” (J Med Chem, 2022).

Data set [1] can be described thus: in vitro. The note with it: mouse, microsomes.
Data set [2] can be described thus: in vitro. The following applies: human, microsomes.
Data set [3] is described as follows: in vivo. The note with it: rat, po, 10 mg/kg.
A short description of data set [4]: in vivo. The note with it: rat, po, 10 mg/kg. The source holds these as a separate data set.
Data set [5] in a line: in vivo. The following applies: rat, iv, 1 mg/kg.
A short description of data set [6]: in vivo. The following applies: rat, po, 10 mg/kg. The source holds these as a separate data set.
The nature of data set [7]: in vivo. The following applies: rat, iv, 10 mg/kg.
Data set [8] can be described thus: in vivo. The note with it: rat, iv, 1 mg/kg. This is another data set of the same source.
A short description of data set [9]: in vivo. The following applies: rat, po, 10 mg/kg. This is another data set of the same source.
Data set [10] is described as follows: in vivo. The following applies: rat, iv, 1 mg/kg. The source holds these as a separate data set.
Data set [11] can be described thus: in vivo. The note with it: rat, iv, 1 mg/kg. The source holds these as a separate data set.
Data set [12] can be described thus: in vitro. The following applies: rat, liver microsomes. Background: Liver microsomes are vesicles of endoplasmic reticulum, rich in cytochrome P450 enzymes.

Turning to `COC(=O)C1CN(Cc2ccc(-n3cc(-c4ccc(OC(C)C)c(Cl)c4)nn3)cc2)C1`, the share remaining at 0.5 h, 1 µM in “in vitro [1]” came out at 19%; in “in vitro [2]” it was 23.2%.

In the data set “in vivo [3]”, `CC(C)(C)c1ccc(C2CC(c3ccc(CN4CC(C(=O)[O-])C4)cc3)=NO2)cc1.[Na+]` (stereo not given) yielded a Cmax of 1.07 µg/mL. The same molecule had a bioavailability in the data set “in vivo [4]” of 44.9%. For the same molecule, the fraction remaining at 0.5 h, 1 µM in “in vitro [1]” was 96.7%; in the data set “in vitro [2]”, 93.8%; in “in vitro [12]”, 95.1%. Further, the Vd in “in vivo [5]” is 2.6 L/kg. In addition, the values for the half-life in “in vivo [6]” and in “in vivo [8]” were 3.1 h and 2.4 h, respectively. The area under the curve AUC(0-inf) in the data set “in vivo [7]” was determined as 5.19 µg·h/mL; in “in vivo [10]”, 1.16 µg·h/mL. For the same molecule, the time of peak concentration (Tmax) in the data set “in vivo [9]” came to 2.3 h. In addition, the clearance in the data set “in vivo [11]” was 0.786 L/h/kg.

Turning to `CC(C)Oc1ccc(-n2cc(-c3ccc(CN4CC(C(=O)O)C4)cc3)nn2)cc1Cl`, the fraction remaining at 0.5 h, 1 µM in “in vitro [1]” is > 99%; in the data set “in vitro [2]”, 98.5%.

In the case of `CC(C)Oc1ccc(C2CC(c3ccc(CN4CCC(C(=O)O)CC4)cc3)=NO2)cc1Cl` (stereo not given), the share remaining at 0.5 h, 1 µM amounted to 84.5% in “in vitro [1]” and 73.5% in “in vitro [2]”.

For `COC(=O)C1CN(Cc2ccc(-c3cn(-c4ccc(OC(C)C)c(Cl)c4)nn3)cc2)C1`, the fraction remaining at 0.5 h, 1 µM in “in vitro [1]” was determined as 28.8%; in “in vitro [2]”, 24.1%.

One may read the share remaining as what is left of the initial amount, in per cent. A lower share remaining goes with a greater loss. The Cmax is the highest concentration seen after dosing. The bioavailability is the share of a dose that reaches the circulation, judged against a reference dose that is usually intravenous. The low end stands for little systemic uptake, the high end for much systemic uptake. As usually defined, the Vd is the apparent volume that relates the amount in the body to the concentration in plasma or blood. Usually half-life stands for the time in which the quantity being followed falls by half. A lower half-life goes with fast loss. Broadly, the AUC(0-inf) is the area under the concentration-time curve extrapolated to infinity. One may read the Tmax as the time from dosing to the highest level. What is called clearance is a measure of how efficiently the substance is removed, as volume per time. High values mean a high capacity for elimination, low ones a low capacity for elimination.
